Where two headings read alike, the source gives them in different places.
Experiments:
[1] = mouse, microsomes, 1 h, 10 µM
Method: (§1) The procedure for identifying microsomal metabolites is as follows:
(§2) The compounds (test compounds and their numbers are shown below, among which compounds A1 and B1 are prepared by referring to the relevant method disclosed in CN110396087A) were weighed and dissolved into dimethyl sulfoxide to prepare a 20 mM solution. The compound stock solution was diluted with 50% acetonitrile in water (v/v) to a concentration of 1.0 mM as a working solution. Liver microsomes (20 mg/mL) were diluted to 1.27 mg/mL with 50 mM dipotassium hydrogen phosphate buffer as a liver microsome working solution. Reduced coenzyme was weighed and dissolved in 3307 μL of phosphate buffer (50 mM) to 5.0 mM as a reduced coenzyme working solution. For T=60 minutes samples, 4 μL of test working solution (1.0 mM) was added, followed by 316 μL of liver microsome working solution (1.27 mg/mL), and finally, 80 μL of reduced coenzyme working solution was added to start the reaction. For T=0 minutes samples, 316 μL of liver microsome working solution (1.27 mg/mL) was added and then 80 μL of reduced coenzyme working solution was added to start the reaction, without test solution incubation. After incubation at 37° C. for 60 minutes, 1200 μL of stop solution was added to stop the enzyme reaction. For T=0 minute samples, 4 μL of test working solution (1.0 mM) was added. The sample plate was placed on a vortexer and vortexed at 600 rpm for 5 minutes. Then, the sample plate was centrifuged at 4000 rpm for 10 minutes. The supernatant was removed, mixed, and dried at room temperature with nitrogen. The residue dried with nitrogen was redissolved in 300 μL of 10% acetonitrile (0.1% FA) solvent and then centrifuged at 4000 rpm for 15 minutes. The supernatant was transferred to a detection plate for mass spectrometry. Mass spectrometry was performed using LC/Q-Exactive plus.
(§3) 7-Ethoxycoumarin (10 μM) was selected as a positive control compound and operated in parallel with the compounds.

[2] = cynomolgus macaque, microsomes, 1 h, 10 µM
Method: as §1, §2, §3

in vivo = conditions: male, cynomolgus monkey
Method: Three male Cynomolgus macaques were administrated a single dose via intravenous injection (iv, 1 mg/kg, n=3), followed by oral administration (po, 10 mg/kg, n=3) after washing out for one week. Intravenous injection was performed by formulating the compounds into 1.0 mg/mL solutions using water or 10% DMSO/30% PEG400/water and administering it at a volume of 1 mL/kg. Oral administration was performed by formulating the compounds into 2.0 mg/mL solutions or suspensions using water or 0.5% methylcellulose/1.7 meq 1N hydrochloric acid and administering it at a volume of 5 mL/kg.
The pharmacokinetic parameters of the compounds were calculated using the non-compartmental model.

HSV virus = assay: Pharmacodynamic evaluation for viral keratitis (HSV) in mice; type: in vivo, C57 mice; conditions: for corneal perforation: right eye, 2 weeks, control: 2 eyes perforated from day 5; for clinical score at the highest peak of the disease (day 5): control group above 6
Method: Fifteen C57 mice (body weight: 22 g to 25 g), aged 8 weeks, were subjected to viral keratitis modeling in their right eyes. During the modeling process, a sterile 25G needle was used to make […]parallel scratches on the cornea of the right eye of all the animals. The scratch depth should be in the superficial zone and cannot penetrate the stroma layer. The scratches between each eyeball should be moderately uniform in depth and evenly distributed in density. Then, 4 μl of well-mixed HSV virus solution was dripped using a fiber syringe (titer: 2.0*10^6 PFU/ml) to complete the modeling. The day of modeling was set as DO. One day after modeling, the animals' right eyes were scored for viral keratitis, and 9 mice with uniform modeling were selected for the experiment. These 9 mice were randomly divided into 3 groups: control group, 1% A2 group and 0.2% A2 group, with 3 mice per group. According to the grouping, each animal's right eye surface was treated with the corresponding drugs, vehicle or 3024 eye drops with different concentrations, once every other day. On the day of administration, each eye was given 3 drops of 10 μl each time for 2 consecutive weeks. The degree of keratitis lesions was scored and analyzed on days 1, 3, 5, 7, 9, 11 and 14 after modeling.
Grading (i.e., scoring) was performed based on the three criteria of corneal ulcer area, depth and shape, and the total score was recorded by adding.
(1) Corneal ulcer area: Score 1=1% to 25%; Score 2=26% to 50%; Score 3=51% to 75%; and Score 4=76% to 100%.
(2) Lesion depth: Score 1=mild corneal opacity with clear iris texture; Score 2=off-white superficial corneal opacity with visible iris texture; Score 3=off-white deep corneal opacity with unclear iris texture; and Score 4=off-white full-layer dense corneal opacity with unclear anterior chamber.
(3) Corneal ulcer shape: Score 1=mild surface irregularity; Score 2=rough corneal surface with mild swelling; Score 3=severe edema with swelling descemet's membrane; and Score 4=corneal perforation or severe swelling descemet's membrane.
(4) If there is hypopyon and/or hyphema, the score is increased by 1.

H1N1 (PR8 strain) = assay: Pharmacodynamic evaluation for H1N1 in mice; type: in vivo, C57BL/6 mice; conditions: 3 mg/kg, oral
Method: Six to eight-week-old female SPFC 57BL/6 mice (VitalRiver Laboratory Animal Technology Co., Ltd., SCXK (Beijing) 2016-0006, Beijing version) were infected with H1N1 (PR8 strain) and stimulated intranasally with 1×10^4 TCID50 virus nose drops. Mice were randomly divided into a therapy group and a control group. The therapy group was given 3 mg/kg of A2 orally, and the control group was given an equal amount of blank drug orally. The weight loss of mice in all groups was monitored daily.

MHV-A59 virus = assay: Pharmacodynamic evaluation for MHV, low-dose virus group; type: in vivo, C57BL/6 mice; conditions: 4×10^5 PFU, day 8, control 19.19%
Method: The effect of A2 on the prevention and treatment of MHV was investigated.
Low-dose virus group: 21 male SPF grade C57BL/6 mice, aged 4 weeks, were divided into three groups: control group, precaution group and therapy group. These mice were anesthetized and then injected intrahepatically (i.h.) with 100 μL of DMEM containing 4×10^5 PFU MHV-A59 virus. The precaution group was given the first dose of A2 at 10 mg/kg 24 hours before the challenge, and the therapy group was given the first dose of A2 at 10 mg/kg 24 hours after the challenge, followed by daily continuous administration (both the precaution group and the therapy group were given a daily dose of 10 mg/kg). The infected mice were monitored daily. Blood samples were collected from the retro-orbital venous plexus on day 0 and day 4 after infection, and serum was extracted to detect alanine aminotransferase (ALT)/alanine aminotransferase (GPT) levels. On day 8 after infection, all groups of mice were sacrificed. Liver tissues were taken for virus titer determination and histological analysis, and spleen tissues were taken for virus specific T proliferation assay.

[2H]C([2H])([2H])N1CCC(n2cc(-c3cnc(N)c(OCc4cccc(C#CC(C)(C)O)c4)c3)cn2)CC1 [Compound A2, 4-(3-(((2-amino-5-(1-(1-trideuteriomethylpiperidin-4-yl)-1H-pyrazol-4-yl)pyridin-3-yl)oxy)methyl)phenyl)-2-methylbut-3-yn-2-ol]
remaining percentage of the parent cores after 60 min [1]: 55.0% | remaining percentage of the parent cores after 60 min [2]: 29.6% | bioavailability (in vivo): 18.8% | AUC(0-t) (in vivo; iv, 1 mg/kg): 949 ng·h/mL | clearance (in vivo; iv, 1 mg/kg): 16.7 mL/min/kg | AUC(0-t) (in vivo; po, 10 mg/kg): 1760 ng·h/mL | keratitis lesion scores vs model control group (HSV virus; 0.2% eye drops for 2 weeks, P<0.01): statistically different | corneal perforation (HSV virus; 0.2% eye drops): no corneal perforation | clinical score at the highest peak of the disease (day 5) (HSV virus; 0.2% eye drops): less than 6 | corneal neovascularization scoring (HSV virus; 1% eye drops (suspension), control group above 1): below 0.5 | keratitis lesion scores vs model control group (HSV virus; 1.0% eye drops for 2 weeks, P<0.05): statistically different | corneal perforation (HSV virus; 1% eye drops): no corneal perforation | clinical score at the highest peak of the disease (day 5) (HSV virus; 1% eye drops): less than 6 | survival rate of H1N1-infected mice (H1N1 (PR8 strain)): significantly higher than that of the blank control group | average proliferation rate of spleen cells (virus specific T cell proliferation) (MHV-A59 virus; precaution group, 10 mg/kg daily from 24 hours before challenge): 28.18% | average proliferation rate of spleen cells (virus specific T cell proliferation) (MHV-A59 virus; therapy group, 10 mg/kg daily from 24 hours after challenge): 52.95%

Source: patent US20250388572A1, “USE OF HPK1 INHIBITOR IN PREVENTION AND/OR TREATMENT OF HUMAN PATHOGEN INFECTION” (priority 2022, published 2025)
